# Literature values in US20250319118A1, “Prophylaxis and Treatment of Degraded Cartilage” (PhrixionLS, LLC, priority 2022, published 2025).
# B1: Sprifermin: Drug (Trial), investigated as disease-modifier for cartilage damage (protein, UniProt O76093 28-207, looked up)
# Fibroblast growth factor 18: EENVDFRIHVENQTRARDDVSRKQLRLYQLYSRTSGKHIQVLGRRISARGEDGDKYAQLLVETDTFGSQVRIKGKETEFYLCMNRKGKLVGKPDGTSKECVFIEKVLENNYTALMSAKYSGWYVGFTKKGRPRKGPKTRENQQDVHFMKRYPKGQPELQKPFKYTTVTKRSRRIRPTHPA
# How the values were obtained:
# [1] = system: osteoarthritis; settings: for Limitations: clinical outcomes / OA symptoms: clinical trials, osteoarthritis
# [2] = system: osteoarthritis; settings: viscosupplementation
molecule,measurement,setting,value
"C[C@H]1CN(C(=O)CC[C@@]2(C3CC3)NC(=O)NC2=O)CCN1c1cc(F)cc(F)c1 [GLPG1972, reference compound]",Efficacy versus placebo,[1]; Phase-2 study,No significant difference versus
"C[S+](CC[C@H](N)C(=O)[O-])C[C@H]1O[C@@H](n2cnc3c(N)ncnc32)[C@H](O)[C@@H]1O (some centres unmarked) [S-adenosyl-methionine (SAMe), S-adenosyl-methionine]",Limitations: clinical outcomes / OA symptoms,[1]; literature summary,"Shown to improve OA symptoms,"
Bromelain,Limitations: clinical outcomes / OA symptoms,[1]; literature summary,"Mixed results in clinical trials,"
hyaluronic acid [HA],Benefit compared to placebo,[2],no significant benefit compared to placebo
B1,Limitations: effect on cartilage (regeneration / protection),"[1]; clinical and preclinical data, literature summary",Demonstrated positive effects
